Measured values from patent publication US10435402B2, “Bicyclic compounds, compositions and medicinal applications thereof” (Advinus Therapeutics Limited, priority 2015, dated 2019).

Biological target: T1, GAL4-DBD/RORγ-LBD (Homo sapiens, UniProt P51449)
T1 construct: expressed in transfected cells; host or cells: HEK293T
Assay: RORγt transactivation reporter assay (GAL4-DBD/RORγ-LBD, luciferase read out)
Type: cell-based
Settings: HEK293T cells, GAL4-UAS luciferase reporter, overnight (18-24 hours) incubation
Summary of the method: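 HEK293T cells were transiently co-transfected with GAL4-DBD/RORγt-LBD (SV40-Renilla transfection control) and a 9×GAL4-UAS firefly Luc2P reporter. Compounds (0.4% DMSO in the compound solution) were added 5 h post-transfection in FBS-free DMEM for 18–24 h at 37 °C. IC50 was taken from the normalised Dual-Glo luciferase signal.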

T1 sequence (P51449 269-508 limits assumed): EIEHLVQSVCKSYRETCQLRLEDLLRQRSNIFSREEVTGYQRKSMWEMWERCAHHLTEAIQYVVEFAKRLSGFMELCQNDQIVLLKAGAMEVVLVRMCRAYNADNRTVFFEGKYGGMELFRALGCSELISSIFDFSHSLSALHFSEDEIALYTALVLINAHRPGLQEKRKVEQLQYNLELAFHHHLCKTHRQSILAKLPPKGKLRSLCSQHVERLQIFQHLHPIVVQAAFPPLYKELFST
T1 sequence (P04386 1-147 partner limits assumed): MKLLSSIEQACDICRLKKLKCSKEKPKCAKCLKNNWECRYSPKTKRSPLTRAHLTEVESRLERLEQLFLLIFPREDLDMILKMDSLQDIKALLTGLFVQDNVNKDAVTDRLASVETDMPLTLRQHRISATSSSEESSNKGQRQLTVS

SMILES | IC50 [nM]
CCOC(=O)c1ccc(-c2cc(C(=O)c3c(F)cccc3F)n3cccc(F)c23)cc1 [Example A-45, ethyl 4-[3-(2,6-difluorobenzoyl)-8-fluoro-indolizin-1-yl]benzoate] | < 500
CC(C)(C)OC(=O)N1CCC=C(c2cc(C(=O)c3c(Cl)ccc(F)c3Cl)n3ccccc23)C1 [Example A-55, tert-butyl 5-[3-(2,6-dichloro-3-fluoro-benzoyl)indolizin-1-yl]-3,6-dihydro-2H-pyridine-1-carboxylate] | > 5000
CCOC(=O)c1ccc(-c2c(C)c(C(=O)c3c(Cl)cccc3C(F)(F)F)n3ccccc23)cc1 [Example C-9, ethyl 4-[3-[2-chloro-6-(trifluoromethyl)benzoyl]-2-methyl-indolizin-1-yl]benzoate] | < 500
COC(=O)c1ccc(-c2cc(C(=O)c3c(Cl)cccc3Cl)n3ccccc23)c(F)c1 [Example A-4, methyl 4-[3-(2,6-dichlorobenzoyl)indolizin-1-yl]-3-fluoro-benzoate] | < 500
CN(C)C(=O)c1ccc2c(-c3ccc(C(=O)O)cc3)cc(C(=O)c3c(Cl)cccc3C(F)(F)F)n2c1 [Example D-1, 4-[3-[2-chloro-6-(trifluoromethyl)benzoyl]-6-(dimethylcarbamoyl)indolizin-1-yl]benzoic acid] | < 500

More lines, now with the values ahead:

IC50 [nM] | SMILES
> 5000 | O=C(c1c(Cl)ccc(F)c1Cl)c1cc(-c2ccc(C(=O)N3CCOCC3)cc2)c2ccccn12 [Example F-3, [4-[3-(2,6-dichloro-3-fluoro-benzoyl)indolizin-1-yl]phenyl]-morpholino-methanone]
> 5000 | CCS(=O)(=O)N1CC=C(c2cc(C(=O)c3c(Cl)cccc3Cl)n3ccccc23)CC1 [Example G-1, (2,6-dichlorophenyl)-[1-(1-ethylsulfonyl-3,6-dihydro-2H-pyridin-4-yl)indolizin-3-yl]methanone]
< 500 | O=C(O)c1ccc(-c2cc(C(=O)c3c(F)cccc3Cl)n3cccc(F)c23)c(F)c1 [Example A-35, 4-[3-(2-chloro-6-fluoro-benzoyl)-8-fluoro-indolizin-1-yl]-3-fluoro-benzoic acid]
< 1000 | O=C(O)c1ccc(-c2cc(C(=O)c3c(Cl)cccc3Br)n3ccccc23)c(F)c1 [Example A-52, 4-[3-(2-bromo-6-chloro-benzoyl)indolizin-1-yl]-3-fluoro-benzoic acid]
< 500 | O=C(O)c1ccc(-c2cc(C(=O)c3c(Cl)cccc3Cl)n3ccccc23)c(F)c1 [Example A-3, 4-[3-(2,6-dichlorobenzoyl)indolizin-1-yl]-3-fluoro-benzoic acid]
